Literature values in US10952981B2, “Liquid pharmaceutical compositions of baclofen for oral administration” (SLAYBACK PHARMA LLC, priority 2019, dated 2021).

Concentration of baclofen obtainable (aqueous 0.1N HCl or 0.1N NaOH, Ahuja (1985)): greater than 20 mg/mL | Equilibrium concentration (as referred to for Allen et al., 1996, Johnson and Hart, 1993): 4.3 mg/mL | Solubility at near neutral pH (at a concentration of 2 mg/mL, near neutral pH): not soluble | Solubility in chloroform (chloroform): insoluble | Solubility in methanol (methanol): very slightly soluble | Solubility in water (water): slightly soluble
Structure (SMILES): NCC(CC(=O)O)c1ccc(Cl)cc1 (stereo not drawn) [Baclofen, 4-amino-3-(4-chlorophenyl)-butanoic acid]
